In patent publication US12643886B2 (Ontario Institute for Cancer Research (OICR), priority 2021, dated 2026):

Key:
NUAK1 = target: T1, NUAK1 (Homo sapiens, UniProt O60285); assay: Counter-screen against NUAK1; assay type: biochemical
T1 sequence (O60285 1-661): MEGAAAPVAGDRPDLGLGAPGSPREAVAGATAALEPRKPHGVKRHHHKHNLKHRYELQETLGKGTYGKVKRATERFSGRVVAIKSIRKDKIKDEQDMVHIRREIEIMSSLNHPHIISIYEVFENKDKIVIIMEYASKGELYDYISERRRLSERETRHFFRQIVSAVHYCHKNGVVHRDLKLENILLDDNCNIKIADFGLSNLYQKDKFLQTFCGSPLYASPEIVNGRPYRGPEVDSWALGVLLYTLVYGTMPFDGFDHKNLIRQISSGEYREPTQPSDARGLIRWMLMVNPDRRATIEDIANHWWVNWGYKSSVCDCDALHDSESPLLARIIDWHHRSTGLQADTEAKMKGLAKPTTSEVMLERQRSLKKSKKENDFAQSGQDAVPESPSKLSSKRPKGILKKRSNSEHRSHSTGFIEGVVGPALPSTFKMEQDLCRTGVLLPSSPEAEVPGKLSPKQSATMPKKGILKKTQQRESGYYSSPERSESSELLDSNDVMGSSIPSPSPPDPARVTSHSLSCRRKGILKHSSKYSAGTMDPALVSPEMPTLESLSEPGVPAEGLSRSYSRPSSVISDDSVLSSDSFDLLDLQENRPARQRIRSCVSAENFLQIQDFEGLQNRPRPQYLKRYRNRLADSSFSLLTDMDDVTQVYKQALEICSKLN
In short: (§1)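 Full-length recombinant NUAK2 incubated 40 min at room temperature in 8 mM MOPS pH 7.0, 0.2 mM EDTA, 10 mM magnesium acetate, 300 μM peptide substrate and 33P-ATP. Stopped with 0.5% phosphoric acid; filter-bound label counted by scintillation. IC50 reported as ranges; NUAK1 and Aurora A served as counter-screens.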

[1] = tested on: Clover-YAP expressing MDA-MB-231 cells; assay: Cell-based YAP/TAZ localization assay (live imaging of Clover-YAP); details: MDA-MB-231 breast cancer cell line, FIG. 1
Method: Compounds of the application were tested for their ability to inhibit localization of YAP/TAZ to the nucleus of cells using an assay generally described in Nature Communications, 2018, 9:3510. Live cell imaging of Clover-YAP expressing MDA-MB-231 cells was carried out using a custom WAVE-FX-X1 spinning disc confocal system (Quorum Technologies) with a modified Yokogawa CSU-X1 scanhead on an AxioObserver Z1 inverted microscope (Carl Zeiss) with a ×40 NA 1.2 Plan Apochromat (Carl Zeiss) objective. Cells were plated in a 35 mm glass-bottom dish (Mat-Tek, P35G-1.5-14-C) and were maintained in a stage-top incubator at 37° C. and 5% CO2 during imaging. Cells were cultured in phenol-red free RPMI medium (Thermo Fisher Scientific, 11835030) with 5% FBS and 200 nM SiR-DNA (Spirochrom, SC007) was added 1 h prior to imaging to visualize the nuclei. Localization of Clover-YAP was monitored every 10 min for 2 h. Volocity software was used for image acquisition and processing.

MDA-MB-231 cells = assay: Tumor cell growth inhibition assay (ATPlite, 5 days); assay type: cell-based; details: Homo sapiens, 120 h; breast tumor cell line MDA-MB-231, 5 days
Method: MDA-MB-231 cells were seeded into a 384-well plate at 1,000 cells/well in 50 μl medium (Alpha-MEM containing 10% FBS, […] Normocin, Invivogen and […] Gentamycin, Invitrogen). Plates were then incubated overnight for the cells to attach. An HP D300 digital dispenser was used to dose cells with DMSO or test compounds across a 16-point range of concentrations (high dose of 10 uM to low dose of 5 nM). Plates were incubated in a humidified 5% CO2 incubator at 37° C. After 5 days, plates were removed from the incubator and equilibrated to room temperature. An equal volume of ATPlite assay reagent was then added to each well, and samples processed according to manufacturer's instructions (Perkin Elmer). Luminescent signals were then measured using an Envision plate reader equipped with a US-Luminescence detector.

NUAK2 (h) = target: T2, NUAK2 (h) (Homo sapiens, UniProt Q9H093); assay: NUAK2 enzymatic assay (radiometric, Eurofins); assay type: biochemical; details: full-length recombinant enzyme
T2 construct: This assay was done radiometrically using full-length, recombinant enzyme; purchased Eurofins
T2 sequence (Q9H093 1-628): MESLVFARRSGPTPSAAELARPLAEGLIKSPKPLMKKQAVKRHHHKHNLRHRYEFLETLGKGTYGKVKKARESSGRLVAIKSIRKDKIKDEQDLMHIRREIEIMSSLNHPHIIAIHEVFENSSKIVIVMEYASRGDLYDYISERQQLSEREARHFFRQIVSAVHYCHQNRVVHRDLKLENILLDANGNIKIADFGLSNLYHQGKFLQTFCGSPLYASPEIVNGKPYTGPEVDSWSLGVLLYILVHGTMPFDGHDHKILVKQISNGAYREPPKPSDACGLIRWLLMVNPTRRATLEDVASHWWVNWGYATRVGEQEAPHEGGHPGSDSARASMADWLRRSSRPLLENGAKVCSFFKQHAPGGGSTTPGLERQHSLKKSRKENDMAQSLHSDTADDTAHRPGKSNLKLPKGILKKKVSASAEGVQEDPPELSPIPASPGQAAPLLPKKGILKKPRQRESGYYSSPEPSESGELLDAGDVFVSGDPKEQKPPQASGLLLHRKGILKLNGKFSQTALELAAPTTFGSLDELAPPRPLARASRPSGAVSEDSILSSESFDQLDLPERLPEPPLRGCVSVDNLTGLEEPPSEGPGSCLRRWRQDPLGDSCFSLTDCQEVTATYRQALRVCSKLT
In short: as §1

Aurora A = target: T3, Aurora A (Homo sapiens, UniProt O14965); assay: Counter-screen against Aurora A; assay type: biochemical; details: read-out: AUR-A (IC50)
T3 sequence (O14965 1-403): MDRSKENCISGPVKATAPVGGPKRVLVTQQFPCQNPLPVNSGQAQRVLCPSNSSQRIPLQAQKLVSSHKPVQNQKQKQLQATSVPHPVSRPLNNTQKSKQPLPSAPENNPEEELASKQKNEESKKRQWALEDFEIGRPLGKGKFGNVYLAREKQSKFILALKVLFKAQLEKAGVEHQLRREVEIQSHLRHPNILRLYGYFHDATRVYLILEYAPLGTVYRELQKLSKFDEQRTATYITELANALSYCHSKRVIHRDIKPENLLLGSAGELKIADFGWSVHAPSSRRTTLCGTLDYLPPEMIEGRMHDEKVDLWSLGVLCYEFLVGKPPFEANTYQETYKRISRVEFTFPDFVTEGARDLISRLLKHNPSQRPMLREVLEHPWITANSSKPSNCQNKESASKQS
In short: as §1

[2] = tested on: several cancer cell lines; details: immunofluorescence; cited from earlier work
[3] = tested on: several cancer cell lines; details: PCR; cited from earlier work

| IC50 (NUAK1) | IC50 (MDA-MB-231 cells) | IC50 (NUAK2 (h)) | IC50 (Aurora A) | SMILES | Inhibition of nuclear localization of YAP/TAZ [1] | YAP/TAZ nuclear localization [2] | YAP/TAZ transcriptional function (target gene expression) [3] |
| --- | --- | --- | --- | --- | --- | --- | --- |
| 11 to 100 nM | 32 nM | 11 to 100 nM | > 1000 nM | O=C1NCc2cccc(Nc3nc(Nc4ccc(N5CCNCC5)cc4OC(F)F)ncc3C(F)(F)F)c21 [Compound I-34, 7-((2-((2-(difluoromethoxy)-4-(piperazin-1-yl)phenyl)amino)-5-(trifluoromethyl)pyrimidin-4-yl)amino)isoindolin-1-one] | potently inhibit nuclear localization of YAP/TAZ |  |  |
| 11 to 100 nM | 48 nM | 0.1 to 10 nM | > 1000 nM | O=C1NCc2cccc(Nc3nc(Nc4ccc(N5C[C@@H]6C[C@H]5CN6)cc4OC(F)F)ncc3C(F)(F)F)c21 [Compound I-54, 7-((2-((4-((1S,4S)-2,5-diazabicyclo[2.2.1]heptan-2-yl)-2-(difluoromethoxy)phenyl)amino)-5-(trifluoromethyl)pyrimidin-4-yl)amino)isoindolin-1-one] |  |  |  |
| 11 to 100 nM | 43 nM | 11 to 100 nM | 101 to 1000 nM | O=C1NCc2cccc(Nc3nc(Nc4ccc(N5C[C@H]6CNC[C@H]6C5)cc4OC(F)F)ncc3C(F)(F)F)c21 [Compound I-56, 7-((2-((2-(difluoromethoxy)-4-((3aR,6aS)-hexahydropyrrolo[3,4-c]pyrrol-2(1H)-yl)phenyl)amino)-5-(trifluoromethyl)pyrimidin-4-yl)amino)isoindolin-1-one] |  |  |  |
| 11 to 100 nM | 398 nM | 0.1 to 10 nM | 101 to 1000 nM | COc1cc(CN(C)C)ccc1Nc1ncc(Cl)c(Nc2cccc3c2C(=O)NC3)n1 [Compound I-63, 7-((5-chloro-2-((4-((dimethylamino)methyl)-2-methoxyphenyl)amino)pyrimidin-4-yl)amino)isoindolin-1-one] |  |  |  |
|  |  |  |  | CN1CCN(c2ccc(Nc3ncc4cc(C#N)c(=O)n(C5CCCC5)c4n3)cc2)CC1 [ON123300] |  | a block of YAP/TAZ nuclear localization | attenuates transcriptional function |
|  |  |  |  | CCC(=O)Nc1cccc(Oc2nc(Nc3ccc(N4CCN(C)CC4)cc3OC)ncc2Cl)c1 [WZ4003] |  | a block of YAP/TAZ nuclear localization | attenuates transcriptional function |

| SMILES | IC50 (NUAK1) | IC50 (MDA-MB-231 cells) | IC50 (NUAK2 (h)) | IC50 (Aurora A) | Inhibition of nuclear localization of YAP/TAZ [1] | YAP/TAZ nuclear localization [2] | YAP/TAZ transcriptional function (target gene expression) [3] |
| --- | --- | --- | --- | --- | --- | --- | --- |
| O=C1NCc2cccc(Nc3nc(Nc4ccc(N5C[C@H]6CC[C@@H](C5)N6)cc4OC(F)F)ncc3C(F)(F)F)c21 [Compound I-59, 7-((2-((4-((1R,5S)-3,8-diazabicyclo[3.2.1]octan-3-yl)-2-(difluoromethoxy)phenyl)amino)-5-(trifluoromethyl)pyrimidin-4-yl)amino)isoindolin-1-one] | 11 to 100 nM | 54 nM | 0.1 to 10 nM | 101 to 1000 nM |  |  |  |
